Converted amounts (≈) assume the structure as drawn.
Columns and labels:
[1] = Serum binding determination by ultrafiltration and HPLC; type: in vitro ADME; settings: % of compound bound to serum as determined by HPLC
Experimental: The more accurate measurement of binding of selected cephalosporin compounds was performed using HPLC as described below. […] Serum is placed in a shaking water bath preheated to 37 ± 2 °C for 5 to 10 minutes to heat serum to 37 °C. Serum pH is measured and recorded, while serum is 37 °C using pH paper. Measurements are taken twice, 3 minutes apart. If the pH is not 7.4 ± 0.4 then the pH is adjusted by blowing 5% CO2/95% O2 over the serum. After blowing for several minutes, serum is heated to 37 °C and measurements are taken twice, 3 minutes apart using pH paper to determine the pH. Store at 4 °C. The serum is stable for 7 days. Always check the pH before each use. • 2. Before any centrifugation, the centrifuge temperature must be adjusted to 25 ± 2 °C. Preheat the centrifuge by spinning for 45 minutes at the same speed to be used in the assay (1900 g) with two tubes of water in the rotor and the temperature set to 25 °C. When the centrifuge stops immediately check the temperature of the tubes of water with a calibrated thermometer. The temperature of the tubes of water must be 25 ± 2 °C. […] Continue spinning and measuring the temperature and adjusting the setting until the temperature is 25 ± 2 °C. • 3. Prepare blank ultrafiltrate by pipetting blank pH 7.4 serum into an Amicon Centrifree Micropartition devices, centrifuge: fixed angle rotor, 1900 g, 25 °C for 20 minutes. Heat ultrafiltrate in a shaking water bath preheated to 37 °C. Measure ultrafiltrate pH and adjust to the pH of the serum (7.4 ± 0.2). • 4. Pipette 190 ul of blank ultrafiltrate into a set of labeled 1.7 mL polypropylene microfuge tubes for 3 of each level. Pipette 10 µL of the appropriate standard stock 50, 200, 1000 µg/mL to make standards 2.5, 10, and 50 µg/mL respectively. Vortex each tube well. One set of the standard samples are mixed 1:1 with 0.2 M acetic acid and injected onto the HPLC (MSTD). These samples are the membrane standards and will be used to compare to the other standards. Pipette 190 ul of ultrafiltrate and spike with 10 ul of whatever solution (e.g. water) the standards are prepared in to make the zero standard. • 5. Pipette 475 µL of blank heated pH 7.4 serum into a set of labeled 1.7 mL polypropylene microfuge tubes for 2 of each (Serum A and Serum B). Pipette 25 µL of the 1000 µg/mL standard stock into each tube, vortex each tube well to make serum standard 50 µg/mL. Remove 100 µL of serum and deproteinate with 200 µL 4% TCA while vortexing to make serum time 0 (serum 50, T0). Place serum tubes in a shaking water bath at 37 °C for 10 minutes. Pipet 100 µL of serum out and deproteinate with 200 µL 4% TCA, to make serum time 10 min (serum 50, T10). Pipet 200 ul serum standard 50 µg/mL into an ultrafiltration device, which is not treated with TCA, to determine free drug in samples (Rat Serum 50). • 6. Transfer serum and standard samples to labeled Amicon Centrifree Micropartition filters, and centrifuge: 1900 g, 25 °C for 10 minutes. The extracted serum samples (T0 and T 10) are spun down and supernatant is loaded into HPLC vials. • 7. 100 µL of ultrafiltrate sample and 100 µL of 0.2 M acetic acid were mixed together to stabilize the compound in ultrafiltrate. • 8. Transfer entire stabilized ultrafiltrate solution to a labeled autoinjector HPLC vial cap with Teflon septa, and inject on HPLC.
Peak height or area is used in a weighted linear regression.

[2] = test system: S. aureus Col8A(Meth^S)(lac^-); assay: Broth microdilution MIC (NCCLS); type: cell-based; settings: Staphylococcus aureus, Mueller-Hinton Broth, 24 h at 35 °C
How it was run: (§1)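 Growth was read by absorbance at 650 nm and by visual inspection after 24 h incubation at 35 °C in Mueller-Hinton broth. The MIC was taken as the lowest concentration blocking growth, with wells seeded at 5 x 10^5 CFU/mL from early-log-phase cells.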

[3] = test system: S. aureus PC1 (Meth^S)(lac^+); assay: Broth microdilution MIC (NCCLS); type: cell-based; settings: Staphylococcus aureus; S. aureus PC1 (Meth^S)(lac^+); Mueller-Hinton Broth, 24 h at 35 °C; read-out: MIC
How it was run: as §1

Compound	fraction unbound ([1]; rat serum)	fraction unbound ([1]; rhesus monkey)	MIC [2] [µg/mL]	MIC [3] [µg/mL]
NCCSCc1ccncc1SC1=C(C(=O)O)N2C(=O)[C@@H](NC(=O)/C(=N\O)c3nc(N)sc3Cl)[C@H]2SC1 [Cmpd 3, (7R)-7-[(Z)-2-(2-amino-5-chlorothiazol-4-yl)-2-(hydroxyimino)acetamido]-3-[4-(2-aminoethylthiomethyl)pyrid-3-ylthio]-3-cephem-4-carboxylic acid]	0.03	0.03		
NCCSCc1ncccc1SC1=C(C(=O)O)N2C(=O)[C@@H](NC(=O)/C(=N\O)c3nc(N)sc3Cl)[C@H]2SC1 [Cmpd 1, (7R)-7-[(Z)-2-(2-amino-5-chlorothiazol-4-yl)-2-(hydroxyimino)acetamido]-3-[2-(2-aminoethylthiomethyl)pyrid-3-ylthio]-3-cephem-4-carboxylic acid]	0.15			
N=C(N)NCCSCc1ncccc1SC1=C(C(=O)O)N2C(=O)[C@@H](NC(=O)/C(=N\O)c3nsc(N)n3)[C@H]2SC1 [Cmpd 2-R, (7R)-7-[(Z)-2-(5-amino-1,2,4-thiadiazol-3-yl)-2-(hydroxyimino)acetamido]-3-[2-(2-guanidinoethylthiomethyl)pyrid-3-ylthio]-3-cephem-4-carboxylic acid]			0.25 (≈ 0.409 µM)	0.13 (≈ 0.213 µM)
N=C(N)NCCSCc1ncccc1SC1=C(C(=O)O)N2C(=O)[C@@H](NC(=O)/C(=N\O)c3nc(N)sc3Cl)[C@H]2SC1 [Cmpd 2-S, (7R)-7-[(Z)-2-(2-amino-5-chlorothiazol-4-yl)-2-(hydroxyimino)acetamido]-3-[2-(2-guanidinoethylthiomethyl)pyrid-3-ylthio]-3-cephem-4-carboxylic acid]	0.24	0.12	0.125 (≈ 0.194 µM)	0.13 (≈ 0.202 µM)
NCCSCc1ncccc1SC1=C(C(=O)O)N2C(=O)[C@@H](NC(=O)/C(=N\O)c3nsc(N)n3)[C@H]2SC1 [Cmpd 2, (7R)-7-[(Z)-2-(5-amino-1,2,4-thiadiazol-3-yl)-2-(hydroxyimino)acetamido]-3-[2-(2-aminoethylthiomethyl)pyrid-3-ylthio]-3-cephem-4-carboxylic acid]	0.26	0.19		
